# Measured values: patent publication US20250059198A1, “BRM DEGRADING COMPOUNDS AND ASSOCIATED METHODS OF USE” (Arvinas Operations, Inc., priority 2021, published 2025)
# Target: T1, BRM (Homo sapiens, UniProt P51531)
# T1 construct: Western Blot Screen of BRM Degradation in SW1573 Cells; endogenous in cells; host or cells: SW1573 cells
# Assay: BRM degradation (Dmax and DC50) in SW1573 cells, Western blot screen / In-Cell Western screen
# Type: cell-based
# Conditions: overnight (18-20 hours) treatment; for Dmax: read-out: Dmax (%)** (% degraded)
# Protocol: (§1) To assess BRM degradation (Dmax and DC50) cells were seeded at 8000/well in 96-well black/clear-bottom plates in 180 μL DMEM growth media (containing 1% pen-strep, 1% HEPES and 10% FBS) per well. Plates were incubated overnight to allow adhesion. The next morning cells were treated by adding 20 μL of 10× target compound concentration (1% DMSO) to appropriate wells and returned to incubator for overnight (18-20 hours). The final DMSO concentration was 0.1%.
# For lysing, adherent cells were washed once with 100 μL of DPBS. Cells were lysed in 40 μL of 1×RIPA+HALT protease inhibitor on ice for 10 minutes and frozen until use at −80° C. Thawed lysates were cleaned by filtration in 1.2 µm filter plates, or alternatively, were spun clean at 2300 g at 4° C. for 30 minutes.
# For blotting, for each Western sample 30 μL of lysate was added to 10 μL of 4× LDS sample buffer, then denatured at 95° C. for 5 minutes in the thermal cycler and placed on ice. Samples were loaded on 4-15% Tris/Glycine gels and run for 25 minutes at 250 constant volts in 1× Tris/Glycine buffer with 4 μL of ladder and 12 μL of each sample loaded for each blot. Protein was transferred from gels to NC with BioRad Turbo dry-transfer unit with the Turbo/midi default program. All blots were rinsed with ddH2O and blocked for 1 hour at room temperature in 5% BSA in TBST (0.1%) on rocker. Blots were exposed to primary antibody in 5% BSA in TBST (0.1%) overnight at 4° C. on rocker (1:1000 for BRM (Cell Signaling Tech. cat #11966) and 1:2000 for alpha-tubulin (Cell Signaling Tech. cat #3873), a control protein. Blot was washed with TBST (0.1%) three times for 5 minutes on rocker at room temperature. Secondary antibody was added, and blots were incubated on a room temperature rocker for 1 hour with 1:18,000 anti-rabbit-HRP and/or anti-mouse-HRP in 5% BSA in TBST (0.1%). Blots were washed three times in TBST (0.1%) for 5 minutes at room temperature on the rocker. Signal was developed with Femto Maximum Sensitivity substrate for 4 minutes and blots read on ChemiDoc™.
# as §1, with “DC50),” for “DC50)”, “10×” for “10× target”, “compound” for “compound concentration”
# For processing, the plates were removed from incubator, the media was removed, and immediately 200 μL of cold (4° C.) DPBS was added to all wells. DPBS was then removed, and 50 μL of 4% paraformaldehyde (PFA) in DPBS (4° C.) was added to all wells, and the plates were incubated at room temperature for 20 minutes. PFA was then removed, and 200 μL of TBS-T containing 0.5% Triton X-100 was added to all wells, and the plates were incubated at room temperature for 30 minutes. TBS-T containing 0.5% Triton X-100 was then removed, and 50 μL of Li-Cor blocking solution was added, and the plates were incubated at room temperature for a minimum of one hour. The blocking solution was removed, and 50 μL of Li-Cor blocking solution containing primary antibody cocktail was added (1:1000 for BRM (Cell Signaling Tech. cat #11966) and 1:2000 for alpha-tubulin (Sigma cat #T6074), a control protein. Plates were then placed in cold room until the next day.
# The next day plates were washed three times with TBS-T, 200 μL per well. Fifty […] of secondary antibody cocktail in LI-COR blocking solution (anti-rabbit_800 nm and anti-mouse_680 nm) was added to all wells (diluted 1:5000). The plates were incubated at room temperature for at least one hour while protected from light. The plates were washed twice with TBS-T, 200 μL per well.
# To read each plate TBS-T was removed, and each plate was inverted tapped on a paper towel. […]
# T1 sequence (P51531 whole entry): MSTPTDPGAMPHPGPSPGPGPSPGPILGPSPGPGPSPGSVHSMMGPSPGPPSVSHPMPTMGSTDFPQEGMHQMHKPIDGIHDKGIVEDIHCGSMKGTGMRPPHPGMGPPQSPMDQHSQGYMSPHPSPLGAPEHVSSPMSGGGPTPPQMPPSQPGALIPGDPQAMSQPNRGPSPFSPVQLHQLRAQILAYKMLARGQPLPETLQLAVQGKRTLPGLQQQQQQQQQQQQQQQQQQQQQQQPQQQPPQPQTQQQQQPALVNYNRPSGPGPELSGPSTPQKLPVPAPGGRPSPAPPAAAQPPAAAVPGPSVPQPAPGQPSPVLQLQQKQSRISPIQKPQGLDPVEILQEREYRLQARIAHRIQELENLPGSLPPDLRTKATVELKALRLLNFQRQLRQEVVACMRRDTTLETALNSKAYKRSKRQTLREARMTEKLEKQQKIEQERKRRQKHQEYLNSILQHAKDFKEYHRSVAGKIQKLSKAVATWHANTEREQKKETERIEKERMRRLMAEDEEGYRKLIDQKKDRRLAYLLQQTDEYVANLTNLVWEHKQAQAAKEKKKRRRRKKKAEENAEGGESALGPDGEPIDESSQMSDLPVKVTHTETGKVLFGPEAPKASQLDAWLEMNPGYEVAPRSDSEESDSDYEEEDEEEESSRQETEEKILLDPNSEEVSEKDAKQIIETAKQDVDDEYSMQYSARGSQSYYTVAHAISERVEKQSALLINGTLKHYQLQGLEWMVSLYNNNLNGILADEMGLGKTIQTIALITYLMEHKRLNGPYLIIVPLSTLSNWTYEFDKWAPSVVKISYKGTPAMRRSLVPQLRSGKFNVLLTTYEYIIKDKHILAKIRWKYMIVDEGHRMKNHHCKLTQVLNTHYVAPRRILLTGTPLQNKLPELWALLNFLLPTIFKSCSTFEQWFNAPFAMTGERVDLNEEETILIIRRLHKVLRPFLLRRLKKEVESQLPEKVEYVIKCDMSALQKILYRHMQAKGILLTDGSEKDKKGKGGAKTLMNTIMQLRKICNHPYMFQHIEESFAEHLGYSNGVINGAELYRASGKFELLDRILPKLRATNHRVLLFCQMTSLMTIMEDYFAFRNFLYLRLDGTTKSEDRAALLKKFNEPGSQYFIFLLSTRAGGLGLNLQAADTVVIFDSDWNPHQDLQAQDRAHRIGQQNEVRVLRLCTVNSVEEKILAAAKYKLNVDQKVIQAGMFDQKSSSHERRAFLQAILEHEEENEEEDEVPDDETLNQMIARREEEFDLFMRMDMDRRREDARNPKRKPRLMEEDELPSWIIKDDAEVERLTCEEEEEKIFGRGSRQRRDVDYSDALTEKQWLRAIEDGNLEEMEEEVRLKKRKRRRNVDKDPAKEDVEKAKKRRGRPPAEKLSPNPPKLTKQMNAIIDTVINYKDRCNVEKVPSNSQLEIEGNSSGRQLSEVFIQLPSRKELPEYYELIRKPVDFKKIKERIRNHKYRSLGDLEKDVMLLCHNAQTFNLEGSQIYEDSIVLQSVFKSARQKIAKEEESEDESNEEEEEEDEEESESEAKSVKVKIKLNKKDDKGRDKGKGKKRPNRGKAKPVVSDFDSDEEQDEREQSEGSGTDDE
smiles,measurement,value
"Cc1ncsc1-c1ccc([C@H](C)NC(=O)[C@@H]2C[C@@H](O)CN2C(=O)[C@@H](c2cc(N3CCC(CN4CCCC5(CC(N6CCO[C@H](CN7C8CCC7CN(c7cc(-c9ccccc9O)nnc7N)C8)C6)C5)C4)CC3)no2)C(C)C)cc1 (stereo partly drawn) [Compound 142, (2S,4R)-1-[(2R)-2-{3-[4-({2-[(2S)-2-({3-[3-amino-6-(2-hydroxyphenyl)pyridazin-4-yl]-3,8-diazabicyclo[3.2.1]octan-8-yl}methyl)morpholin-4-yl]-6-azaspiro[3.5]nonan-6-yl}methyl)piperidin-1-yl]-1,2-oxazol-5-yl}-3-methylbutanoyl]-4-hydroxy-N-[(1S)-1-[4-(4-methyl-1,3-thiazol-5-yl)phenyl]ethyl]pyrrolidine-2-carboxamide]",DC50,< 2.5 nM
same,Dmax,> 75%
"Cc1ncsc1-c1ccc([C@H](C)NC(=O)[C@@H]2C[C@@H](O)CN2C(=O)[C@@H](c2cc(N3CCC(CN4CCC(O[C@H]5C[C@@H](N6CCC([C@H](C)n7cc(-c8cc(-c9ccccc9O)nnc8N)cn7)CC6)C5)CC4)CC3)no2)C(C)C)cc1 [Compound 8, (2S,4R)-4-hydroxy-N-[(1S)-1-[4-(4-methyl-1,3-thiazol-5-yl)phenyl]ethyl]-1-[(2R)-3-methyl-2-{3-[4-({4-[(1s,3s)-3-{4-[(1S)-1-{4-[3-amino-6-(2-hydroxyphenyl)pyridazin-4-yl]-1H-pyrazol-1-yl}ethyl]piperidin-1-yl}cyclobutoxy]piperidin-1-yl}methyl)piperidin-1-yl]-1,2-oxazol-5-yl}butanoyl]pyrrolidine-2-carboxamide]",DC50,< 2.5 nM
same,Dmax,> 75%
"Cc1ncsc1-c1ccc([C@H](C)NC(=O)[C@@H]2C[C@@H](O)CN2C(=O)[C@@H](c2cc(N3CCC(OC(=O)N4CCC(O[C@H]5C[C@H](Oc6cc(N7C8CCC7CN(c7cc(-c9ccccc9O)nnc7N)C8)ccn6)C5)CC4)CC3)no2)C(C)C)cc1 [Compound 117, 1-{5-[(2R)-1-[(2S,4R)-4-hydroxy-2-{[(1S)-1-[4-(4-methyl-1,3-thiazol-5-yl)phenyl]ethyl]carbamoyl}pyrrolidin-1-yl]-3-methyl-1-oxobutan-2-yl]-1,2-oxazol-3-yl}piperidin-4-yl 4-[(1r,3r)-3-[(4-{3-[3-amino-6-(2-hydroxyphenyl)pyridazin-4-yl]-3,8-diazabicyclo[3.2.1]octan-8-yl}pyridin-2-yl)oxy]cyclobutoxy]piperidine-1-carboxylate]",DC50,< 2.5 nM
same,Dmax,> 75%
"CC(C)[C@@H](C(=O)N1C[C@H](O)C[C@H]1C(=O)N[C@H](C)c1cc(F)c(C#N)cc1F)c1cc(N2CCC(CN3CCC(O[C@H]4C[C@H](Oc5cc(N6C7CCC6CN(c6cc(-c8ccccc8O)nnc6N)C7)ccn5)C4)CC3)CC2)no1 [Compound 3, (2S,4R)-N-[(1R)-1-(4-cyano-2,5-difluorophenyl)ethyl]-4-hydroxy-1-[(2R)-3-methyl-2-{3-[4-({4-[(1r,3r)-3-[(4-{3-[3-amino-6-(2-hydroxyphenyl)pyridazin-4-yl]-3,8-diazabicyclo[3.2.1]octan-8-yl}pyridin-2-yl)oxy]cyclobutoxy]piperidin-1-yl}methyl)piperidin-1-yl]-1,2-oxazol-5-yl}butanoyl]pyrrolidine-2-carboxamide]",DC50,≥ 30 nM
"Cc1ncsc1-c1ccc([C@H](C)NC(=O)[C@@H]2C[C@@H](O)CN2C(=O)[C@@H](c2cc(N3CCC(CN4CCC(O[C@H]5C[C@H](N6CCC([C@H](C)c7cnn(-c8cc(-c9ccccc9O)nnc8N)c7)CC6)C5)CC4)CC3)no2)C(C)C)cc1 [Compound 75, (2S,4R)-4-hydroxy-N-[(1S)-1-[4-(4-methyl-1,3-thiazol-5-yl)phenyl]ethyl]-1-[(2R)-3-methyl-2-{3-[4-({4-[(1r,3r)-3-{4-[(1S)-1-{1-[3-amino-6-(2-hydroxyphenyl)pyridazin-4-yl]-1H-pyrazol-4-yl}ethyl]piperidin-1-yl}cyclobutoxy]piperidin-1-yl}methyl)piperidin-1-yl]-1,2-oxazol-5-yl}butanoyl]pyrrolidine-2-carboxamide]",DC50,< 2.5 nM
same,Dmax,> 75%
"Cc1ncsc1-c1ccc([C@H](C)NC(=O)[C@@H]2C[C@@H](O)CN2C(=O)[C@H](c2cc(N3CCC(OC(=O)N4CCC(Oc5cc(N6C7CCC6CN(c6cc(-c8ccccc8O)nnc6N)C7)ccn5)CC4)CC3)no2)C(C)C)cc1 [Compound 131, 1-(5-((S)-1-((2S,4R)-4-hydroxy-2-(((S)-1-(4-(4-methylthiazol-5-yl)phenyl)ethyl)carbamoyl)pyrrolidin-1-yl)-3-methyl-1-oxobutan-2-yl)isoxazol-3-yl)piperidin-4-yl 4-((4-(3-(3-amino-6-(2-hydroxyphenyl)pyridazin-4-yl)-3,8-diazabicyclo[3.2.1]octan-8-yl)pyridin-2-yl)oxy)piperidine-1-carboxylate]",DC50,≥ 30 nM
"Cc1ncsc1-c1ccc([C@H](C)NC(=O)[C@@H]2C[C@@H](O)CN2C(=O)[C@@H](c2cc(N3CCC(CN4CCC5(CC4)CC(N4CCC[C@](O)(CN6C7CCC6CN(c6cc(-c8ccccc8O)nnc6N)C7)C4)C5)CC3)no2)C(C)C)cc1 [Compound 61, (2S,4R)-1-[(2R)-2-{3-[4-({2-[(3R)-3-({3-[3-amino-6-(2-hydroxyphenyl)pyridazin-4-yl]-3,8-diazabicyclo[3.2.1]octan-8-yl}methyl)-3-hydroxypiperidin-1-yl]-7-azaspiro[3.5]nonan-7-yl}methyl)piperidin-1-yl]-1,2-oxazol-5-yl}-3-methylbutanoyl]-4-hydroxy-N-[(1S)-1-[4-(4-methyl-1,3-thiazol-5-yl)phenyl]ethyl]pyrrolidine-2-carboxamide]",DC50,< 2.5 nM
same,Dmax,> 75%
"CC(C)[C@@H](C(=O)N1C[C@H](O)C[C@H]1C(=O)N[C@@H](C)c1ccc(Cl)cc1)c1cc(N2CCC(CN3CCC(O[C@H]4C[C@H](Oc5cc(N6C7CCC6CN(c6cc(-c8ccccc8O)nnc6N)C7)ccn5)C4)CC3)CC2)no1 (relative stereo) [Compound 48, (2S,4R)-N-[(1S)-1-(4-chlorophenyl)ethyl]-4-hydroxy-1-[(2R*)-3-methyl-2-{3-[4-({4-[(1rs,3rs)-3-[(4-{3-[3-amino-6-(2-hydroxyphenyl)pyridazin-4-yl]-3,8-diazabicyclo[3.2.1]octan-8-yl}pyridin-2-yl)oxy]cyclobutoxy]piperidin-1-yl}methyl)piperidin-1-yl]-1,2-oxazol-5-yl}butanoyl]pyrrolidine-2-carboxamide]",DC50,10 to 30 nM
same,Dmax,> 75%
"CC(C)[C@@H](C(=O)N1C[C@H](O)C[C@H]1C(=O)N[C@@H](C)c1ccc(C#N)cc1)c1cc(N2CCC(CN3CCC(O[C@H]4C[C@H](Oc5cc(N6C7CCCC6CN(c6cc(-c8ccccc8O)nnc6N)C7)ccn5)C4)CC3)CC2)no1 [Compound 16, (2S,4R)-N-[(1S)-1-(4-cyanophenyl)ethyl]-4-hydroxy-1-[(2R)-3-methyl-2-{3-[4-({4-[(1r,3r)-3-[(4-{3-[3-amino-6-(2-hydroxyphenyl)pyridazin-4-yl]-3,9-diazabicyclo[3.3.1]nonan-9-yl}pyridin-2-yl)oxy]cyclobutoxy]piperidin-1-yl}methyl)piperidin-1-yl]-1,2-oxazol-5-yl}butanoyl]pyrrolidine-2-carboxamide]",DC50,< 2.5 nM
same,Dmax,> 75%
